Experimental data: paper PMC9455338, “Design, synthesis, and biological evaluation of potent FAK-degrading PROTACs” (Journal of Enzyme Inhibition and Medicinal Chemistry, 2022)

Key:
FAK [1] = target: T1, FAK (Homo sapiens, UniProt Q05397); assay: biochemical; design: HTRF KinEASE-TK kinase assay with purified FAK, inhibition of substrate phosphorylation; conditions: for inhibition at 0.1 µM: read-out: FAK inhibition (%)^a / 0.1 μM; for inhibition at 0.5 µM: read-out: FAK inhibition (%)^a / 0.5 μM
T1 construct: gene PTK2
T1 sequence (Q05397 2-1052): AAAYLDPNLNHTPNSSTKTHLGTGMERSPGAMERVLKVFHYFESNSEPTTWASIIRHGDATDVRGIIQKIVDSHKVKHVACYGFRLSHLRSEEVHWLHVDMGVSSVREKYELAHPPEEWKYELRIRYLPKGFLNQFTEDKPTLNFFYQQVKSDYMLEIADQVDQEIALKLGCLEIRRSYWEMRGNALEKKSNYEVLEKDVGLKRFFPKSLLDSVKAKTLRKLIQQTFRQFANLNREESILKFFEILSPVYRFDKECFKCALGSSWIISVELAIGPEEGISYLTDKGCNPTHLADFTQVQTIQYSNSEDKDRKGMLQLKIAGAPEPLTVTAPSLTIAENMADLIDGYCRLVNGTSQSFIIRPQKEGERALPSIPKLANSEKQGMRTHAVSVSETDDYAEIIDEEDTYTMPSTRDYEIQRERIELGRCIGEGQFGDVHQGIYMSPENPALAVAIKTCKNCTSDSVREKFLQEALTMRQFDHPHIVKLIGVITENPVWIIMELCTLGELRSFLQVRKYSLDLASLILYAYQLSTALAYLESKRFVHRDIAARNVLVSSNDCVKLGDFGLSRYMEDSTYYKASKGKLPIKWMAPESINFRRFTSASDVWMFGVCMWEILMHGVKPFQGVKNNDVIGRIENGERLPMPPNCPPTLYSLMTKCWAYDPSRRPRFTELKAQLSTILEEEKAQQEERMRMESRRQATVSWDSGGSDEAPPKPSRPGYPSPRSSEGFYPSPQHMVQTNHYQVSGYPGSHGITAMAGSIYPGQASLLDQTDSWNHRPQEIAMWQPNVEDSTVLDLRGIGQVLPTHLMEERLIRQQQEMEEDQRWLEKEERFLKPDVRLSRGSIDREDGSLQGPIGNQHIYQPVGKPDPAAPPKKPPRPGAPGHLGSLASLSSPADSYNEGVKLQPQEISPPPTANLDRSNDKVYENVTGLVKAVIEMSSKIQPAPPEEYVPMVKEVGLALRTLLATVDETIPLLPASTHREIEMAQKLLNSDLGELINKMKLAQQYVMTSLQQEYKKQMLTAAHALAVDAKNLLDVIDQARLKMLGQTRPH
Experimental: The FAK kinase assay was performed using the HTRF® KinEASE™-TK kit (Cisbio Bioassays, France) in white 384-well small volume plates with a total working volume of 20 μL. Purified FAK enzyme was purchased from Carna Biosciences (Japan). Compounds were diluted step-by-step from a concentrated stock of 8 mM in 100% DMSO and with serial kinase reaction buffer dilutions. The IC50 measurements were performed in replicates. […] The assay plates were incubated at 30 °C for 50 min and reactions were terminated by adding 10 μL of mix 2 (Sa-XL665 + TK-Antibody-Cryptate). After a final incubation (60 min at room temperature), HTRF signals were obtained by reading plates using an Infinite® F500 microplate reader (Tecan, Switzerland). […] For IC50 measurements, values were normalised and fitted with Graphpad prism 8.3.0.

FAK [2] = target: T1, FAK; assay: HTRF KinEASE-TK kinase assay, purified FAK (Carna)
FAK [3] = target: T1, FAK; assay: HTRF kinase assay, % inhibition at […]; assay type: biochemical

CN(c1ccccc1CNc1nc(Nc2ccc(N3CCN(CCOCCOCCNC(=O)CNc4cccc5c4C(=O)N(C4CCC(=O)NC4=O)C5=O)CC3)cc2)ncc1C(F)(F)F)S(C)(=O)=O (stereo not shown) [A1, 2-{[2–(2,6-Dioxopiperidin-3-yl)-1,3-dioxoisoindolin-4-yl]amino}-N-(2-{2-[2–(4-{4-[(4-{[2-(N-methylmethylsulfonamido)benzyl]amino}-5-(trifluoromethyl)pyrimidin-2-yl)amino]phenyl}piperazin-1-yl)ethoxy]ethoxy}ethyl)acetamide]
inhibition at 0.1 µM (FAK [1]): 94.9%
inhibition at 0.5 µM (FAK [1]): 98%
IC50 (FAK [2]): 22.3 nM

CN(c1ccccc1CNc1nc(Nc2ccc(N3CCN(CCCOCCC(=O)NCCNc4cccc5c4C(=O)N(C4CCC(=O)NC4=O)C5=O)CC3)cc2)ncc1C(F)(F)F)S(C)(=O)=O (stereo not shown) [A2, N-(2-{[2–(2,6-dioxopiperidin-3-yl)-1,3-dioxoisoindolin-4-yl]amino}ethyl)-3-[3–(4-{4-[(4-{[2-(N-methylmethylsulfonamido)benzyl]amino}-5-(trifluoromethyl)pyrimidin-2-yl)amino]phenyl}piperazin-1-yl)propoxy]propanamide]
inhibition at 0.1 µM (FAK [3]): 89%
inhibition at 0.5 µM (FAK [1]): 98.8%

CN(c1ccccc1CNc1nc(Nc2ccc(N3CCN(CCCCC(=O)Nc4cccc5c4C(=O)N(C4CCC(=O)NC4=O)C5=O)CC3)cc2)ncc1C(F)(F)F)S(C)(=O)=O (stereo not shown) [A5]
inhibition at 0.1 µM (FAK [3]): 91.2%
inhibition at 0.5 µM (FAK [1]): 98%

CN(c1ccccc1CNc1nc(Nc2ccc(N3CCN(CCCCCC(=O)Nc4cccc5c4C(=O)N(C4CCC(=O)NC4=O)C5=O)CC3)cc2)ncc1C(F)(F)F)S(C)(=O)=O (stereo not shown) [A6, N-(2–(2,6-Dioxopiperidin-3-yl)-1,3-dioxoisoindol-4-yl)-6–(4-{4-[(4-{[2-(N-Methylmethylsulfonamido)benzyl]amino}-5-(trifluoromethyl)pyrimidin-2-yl)amino]phenyl}piperazin-1-yl)hexanamide]
inhibition at 0.1 µM (FAK [1]): 88.2%
inhibition at 0.5 µM (FAK [1]): 96.8%
IC50 (FAK [2]): 24.4 nM

CN(c1ccccc1CNc1nc(Nc2ccc(N3CCN(CCCCCCC(=O)Nc4cccc5c4C(=O)N(C4CCC(=O)NC4=O)C5=O)CC3)cc2)ncc1C(F)(F)F)S(C)(=O)=O (stereo not shown) [A7, N-[2–(2,6-Dioxopiperidin-3-yl)-1,3-dioxoisoindol-4-yl]-7–(4-{4-[(4-{[2-(N-Methylmethylsulfonamido)benzyl]amino}-5-(trifluoromethyl)pyrimidin-2-yl)amino]phenyl}piperazin-1-yl)heptamide]
inhibition at 0.1 µM (FAK [3]): 87.5%
inhibition at 0.5 µM (FAK [1]): 95.4%

CN(c1ccccc1CNc1nc(Nc2ccc(N3CCN(CCCCC(=O)NCCNc4cccc5c4C(=O)N(C4CCC(=O)NC4=O)C5=O)CC3)cc2)ncc1C(F)(F)F)S(C)(=O)=O (stereo not shown) [A11, N-(2-{[2–(2,6-Dioxopiperidin-3-yl)-1,3-dioxoisoindolin-4-yl]amino}ethyl)-5–(4 –{4-[(4-{[2-(N-Methylmethylsulfonamido)benzyl]amino}-5-(trifluoromethyl)pyrimidin-2-yl)amino]phenyl}piperazine-1-yl)pentanamide]
inhibition at 0.1 µM (FAK [3]): 93.5%
inhibition at 0.5 µM (FAK [1]): 98.6%

CN(c1ccccc1CNc1nc(Nc2ccc(N3CCN(CCCCCC(=O)NCCNc4cccc5c4C(=O)N(C4CCC(=O)NC4=O)C5=O)CC3)cc2)ncc1C(F)(F)F)S(C)(=O)=O (stereo not shown) [A12, N-(2-{[2–(2,6-Dioxopiperidin-3-yl)-1,3-dioxoisoindolin-4-yl]amino}ethyl)-6–(4-{4-[(4-{[2-(N-methylmethylsulfonamido)benzyl]amino}-5-(trifluoromethyl)pyrimidin-2-yl)amino]phenyl}piperazine-1-yl)hexanamide]
inhibition at 0.1 µM (FAK [3]): 86.1%
inhibition at 0.5 µM (FAK [1]): 98%

CN(c1ccccc1CNc1nc(Nc2ccc(N3CCN(CCCCCCC(=O)NCCNc4cccc5c4C(=O)N(C4CCC(=O)NC4=O)C5=O)CC3)cc2)ncc1C(F)(F)F)S(C)(=O)=O (stereo not shown) [A13, N-(2-{[2–(2,6-Dioxopiperidin-3-yl)-1,3-dioxoisoindolin-4-yl]amino}ethyl)-7–(4 -{4-[(4-{[2-(N-methylmethylsulfonamido)benzyl]amino}-5-(trifluoromethyl)pyrimidin-2-yl)amino]phenyl}piperazine-1-yl)heptamide]
inhibition at 0.1 µM (FAK [1]): 84.4%
inhibition at 0.5 µM (FAK [1]): 96.9%
IC50 (FAK [2]): 26.4 nM
